Laboratory results from patent publication US20250134871A1, “UPR MODULATORS TO TREAT HEARING LOSS” (JACARANDA BIOSCIENCES, INC., priority 2021, published 2025).

Tests used:
CHOP = experiment: ER stress induction in HEK cells treated with compounds (CHOP mRNA, qPCR); format: cell-based; details: HEK 293 cells, 0.5 μM thapsigargin and 0.1 to 5.0 μM of each drug for 2 hours; CHOP mRNA by qPCR, ΔΔCt vs GAPDH
Procedure: HEK 293 cells were cultured in DMEM with 10% FBS, Pen/Strep in 5% CO2, at 37° C. in incubator. Cells were split and seeded at approximately 2×10^4 cells in each well of 96-well plate one day before treatment. Cells were grown in good shape and passaged one or two times before testing.
Cells were treated with 0.5 μM thapsigargin and 0.1 to 5.0 μM of each drug for 2 hours. The cells were then harvested, pelleted and treated to ready for testing mRNA abundance for specific UPR genes from cells in the PCR reaction using the TaqMan™ Gene Expression Cells-to-CT™ Kit (Thermo Fisher). Prescreened primers were ordered from Bio-Rad. The gene tested is CHOP, (the C/EBP Homologous Protein). These markers were compared against GAPDH. The qPCR system we used was CFX 384 Real time (Bio-Rad). Samples were measured in triplicates and relative quantification, by the ΔΔCt-method, using GAPDH as reference. The biological results are summarized in Table 1 where A represents a greater than 50% reduction in CHOP signal in compound-treated versus untreated cells, B represents a 20% to 50% reduction in CHOP signal, and C represents a 1% to 20% reduction in CHOP signal.

[1] = test system: hearing loss from noise exposure; details: cited from earlier work

Row | Compound | CHOP reduction (CHOP) | cochlear synaptopathy after a transient threshold shift ([1]; after a transient threshold shift) | hearing loss from noise exposure (permanent threshold shift) ([1]; mice, noise exposure)
1 | O=C(COc1ccccc1)Nc1ccc(NC(=O)COc2ccccc2)cc1 [Compound A1, 2-Phenoxy-N-[4-(2-phenoxyacetylamino)phenyl]acetamide] | A (A represents a greater than 50% reduction in CHOP signal in compound-treated versus untreated cells) |  | 
2 | O=C(COc1ccc(Cl)cc1)Nc1ccc(NC(=O)COc2ccc(Cl)cc2)cc1 [Compound A2, 2-(4-Chlorophenoxy)-N-[4-[[2-(4-chlorophenoxy)acetyl]amino]phenyl]acetamide] | B (B represents a 20% to 50% reduction in CHOP signal) |  | 
3 | CC(C)(C)c1ccc(OCC(=O)Nc2ccc(NC(=O)COc3ccc(C(C)(C)C)cc3)cc2)cc1 [Compound A3, N,N′-Benzene-1,4-diylbis [2-(4-tert-butylphenoxy)acetamide]] | C (C represents a 1% to 20% reduction in CHOP signal) |  | 
4 | Cc1ccc(OCC(=O)Nc2ccc(NC(=O)COc3ccc(C)cc3)cc2)cc1 [Compound A4, N,N′-Benzene-1,4-diylbis [2-(4-methylphenoxy)acetamide]] | C (C represents a 1% to 20% reduction in CHOP signal) |  | 
5 | O=C(COc1ccccc1)Nc1ccc(NC(=O)COc2ccccc2)nc1 [Compound B1, 2-Phenoxy-N-[6-[[2-phenoxyacetyl]amino]pyridin-3-yl]acetamide] | C (C represents a 1% to 20% reduction in CHOP signal) |  | 
6 | O=C(COc1ccc(Cl)cc1)Nc1ccc(NC(=O)COc2ccc(Cl)cc2)nc1 [Compound B2, 2-(4-Chlorophenoxy)-N-[6-[[2-(4-chlorophenoxy)acetyl]amino]pyridin-3-yl]acetamide] | A (A represents a greater than 50% reduction in CHOP signal in compound-treated versus untreated cells) |  | 
7 | Cc1ccc(OCC(=O)Nc2ccc(NC(=O)COc3ccc(C)cc3)nc2)cc1 [Compound B3, 2-(4-Methylphenoxy)-N-[6-[[2-(4-methylphenoxy)acetyl]amino]pyridin-3-yl]acetamide] | B (B represents a 20% to 50% reduction in CHOP signal) |  | 
8 | O=C(COc1ccccc1)Nc1cnc(NC(=O)COc2ccccc2)c(Br)c1 [Compound B4, 2-Phenoxy-N-[5-bromo-6-[[2-phenoxyacetyl]amino]pyridin-3-yl]acetamide] | C (C represents a 1% to 20% reduction in CHOP signal) |  | 
9 | O=C(COc1ccc(Cl)cc1)Nc1cnc(NC(=O)COc2ccc(Cl)cc2)c(Br)c1 [Compound B5, 2-(4-Chlorophenoxy)-N-[5-bromo-6-[[2-(4-chlorophenoxy)acetyl]amino]pyridin-3-yl]acetamide] | C (C represents a 1% to 20% reduction in CHOP signal) |  | 
10 | Cc1ccc(OCC(=O)Nc2cnc(NC(=O)COc3ccc(C)cc3)c(Br)c2)cc1 [Compound B6, 2-(4-Methylphenoxy)-N-[5-bromo-6-[[2-(4-methylphenoxy)acetyl]amino]pyridin-3-yl]acetamide] | C (C represents a 1% to 20% reduction in CHOP signal) |  | 
11 | CC(C)(C)c1ccc(OCC(=O)Nc2cnc(NC(=O)COc3ccc(C(C)(C)C)cc3)c(Br)c2)cc1 [Compound B7, 2-(4-tert-Butylphenoxy)-N-[5-bromo-6-[[2-(4-tert-butylphenoxy)acetyl]amino]pyridin-3-yl]acetamide] | B (B represents a 20% to 50% reduction in CHOP signal) |  | 
12 | Cc1cc(NC(=O)COc2ccccc2)ccc1NC(=O)COc1ccccc1 [Compound C1, 2-Phenoxy-N-[2-methyl-4-(2-phenoxyacetylamino)phenyl]acetamide] | B (B represents a 20% to 50% reduction in CHOP signal) |  | 
13 | Cc1cc(NC(=O)COc2ccc(Cl)cc2)ccc1NC(=O)COc1ccc(Cl)cc1 [Compound C2, 2-(4-Chlorophenoxy)-N-[2-methyl-4-[[2-(4-chlorophenoxy)acetyl]amino]phenyl]acetamide] | A (A represents a greater than 50% reduction in CHOP signal in compound-treated versus untreated cells) |  | 
14 | O=C(COc1ccccc1)Nc1ccc(NC(=O)COc2ccccc2)c(Cl)c1 [Compound C5, 2-Phenoxy-N-[2-chloro-4-(2-phenoxyacetylamino)phenyl]acetamide] | B (B represents a 20% to 50% reduction in CHOP signal) |  | 
15 | O=C(COc1ccc(Cl)cc1)Nc1ccc(NC(=O)COc2ccc(Cl)cc2)c(Cl)c1 [Compound C6, 2-(4-Chlorophenoxy)-N-[2-chloro-4-[[2-(4-chlorophenoxy)acetyl]amino]phenyl]acetamide] | A (A represents a greater than 50% reduction in CHOP signal in compound-treated versus untreated cells) |  | 
16 | Cc1ccc(OCC(=O)Nc2ccc(NC(=O)COc3ccc(C)cc3)c(Cl)c2)cc1 [Compound C7, N,N′-2-Chlorobenzene-1,4-diylbis[2-(4-methylphenoxy)acetamide]] | C (C represents a 1% to 20% reduction in CHOP signal) |  | 
17 | CC(C)(C)c1ccc(OCC(=O)Nc2ccc(NC(=O)COc3ccc(C(C)(C)C)cc3)c(Cl)c2)cc1 [Compound C8, N,N′-2-Chlorobenzene-1,4-diylbis[2-(4-tert-butylphenoxy)acetamide]] | B (B represents a 20% to 50% reduction in CHOP signal) |  | 
18 | O=C(COc1ccc(Cl)cc1)NC1CCC(NC(=O)COc2ccc(Cl)cc2)CC1 (stereo not shown) [ISRIB] |  | can prevent cochlear synatopathy after a transient threshold shift | can prevent hearing loss in mice from noise exposure
